# How the values were obtained:
# [1] = Horizontal screen test, acute motor toxicity; type: in vivo, mice; settings: intratracheal 100 μg/kg, any time point of the time course experiment
# Description: The horizontal screen test was used to assess the acute motor toxicity of intratracheal midazolam (100 μg/kg) in the time course experiment.
# [2] = system: kainic acid induced seizure; assay: Kainic acid seizure threshold test in mice (intravenous infusion); type: in vivo
# Description: (§1) Male NIH Swiss mice (22-30 g) were kept in a vivarium under controlled environmental conditions (temperature, 22-26° C.; humidity, 40-50%) with an artificial 12-h light/dark cycle. Wood chips were used in all cages. Experiments were performed during the light phase of the light/dark cycle after a minimum 30-min period of acclimation to the experimental room. The animal facilities were fully accredited by the Association for Assessment and Accreditation of Laboratory Animal Care. All studies were performed under protocols approved by the Animal Care and Use Committee of the University of California, Davis in strict compliance with the Guide for the Care and Use of Laboratory Animals of the National Research Council (National Academy Press, Washington, D.C.).
# Intratracheal administration of midazolam was carried out as described by Oka et al. (2006). In brief, mice were briefly anesthetized using isoflurane anesthesia (4% isoflurane). The animals were immediately placed on a surgical board held at a 60° angle. The animal's mouth was kept open by hanging the upper incisors on a hook to facilitate detection of the epiglottis. […]
# Results are expressed as mean±S.E.M.; the significance of the difference in the responses of treatment groups with respect to control is based on one-way analysis of variance (ANOVA) followed by specific post-hoc comparisons using Tukey's test. […]
# PTZ-induced seizures = assay: PTZ seizure threshold test, tonic extension endpoint, Example 2; type: in vivo, mice
# Description: as §1, with “NIH” for “Male NIH”, “D.C.; on the internet at nap.edu/readingroom/books/labrats/).” for “D.C.).”
# Midazolam was administered as a commercially available injectable solution (midazolam hydrochloride, 10 mg/10 ml; APP Pharmaceuticals, Schaumburg, Ill., USA) containing sodium chloride (0.8% w/v), disodium edetate (0.01% w/v), benzyl alcohol as preservative (1% v/v) with HCl to adjust the pH 3-3.6. Pentylenetetrazol (PTZ) (Sigma-Aldrich, St. Louis, Mo., USA) was dissolved in 0.9% w/v saline. The remaining test substances were all obtained from Tocris Bioscience (Ellisville, Mo., USA) except for clonazepam, which was from Sigma-Aldrich. Finasteride was dissolved in 25% hydroxypropyl-β-cyclodextrin (Trappsol; Cyclodextrin Technologies Development, High Springs, Fla., U.S.A.). Metyrapone was dissolved in double distilled water and PK 11195 and clonazepam were suspended in 1% Tween 80 and adjusted to volume with saline.
# PTZ seizure threshold was determined according to a protocol used previously in our laboratory (Dhir et al., 2011). Intravenous PTZ elicits a sequence of seizure signs beginning with twitch and progressing to clonus and tonic limb extension. In the present study, tonic extension was used as the endpoint. […] It is noteworthy that this is the endpoint originally used in studies characterizing the actions of midazolam against PTZ seizures in mice (Pieri, 1983 Br J Clin Pharmacol 16 Suppl 1: 17S-27S). A 27 gauge-¾ inch “butterfly” needle was inserted into the lateral tail vein and the needle was secured with a narrow piece of adhesive tape. The animal was placed inside a 2 L glass beaker with free aeration from the top and allowed to move freely. The needle was connected by polyethylene tubing to a Beckton, Dickinson 1 ml syringe mounted on an infusion pump (Model ‘11’ plus syringe pump; Harvard Apparatus, Holliston, Mass.). PTZ solution (10 mg/ml) was infused at a constant rate of 0.5 ml/min. The infusion was stopped at 3 min or at the onset of tonic extension, whichever occurred first. The threshold value (mg/kg) for tonic extension was determined according to the formula: (infusion duration [sec]×infusion rate [ml/min]×PTZ concentration [mg/ml]×1000)/(60 [sec]×weight of mouse [g]).
# In an initial experiment, the dose-response relationship for midazolam elevation of seizure threshold was assessed at doses of 100 μg/kg to 5 mg/kg (15 min pretreatment time). […] PK 11195 was used at a dose (15 mg/kg) as in the study of Ugale et al. (2004 Brain Res. 2004 Oct. 8; 1023(1):102-11). Clonazepam was administered at a dose of 100 μg/kg (Akula et al., 2009). The volume of all intraperitoneal injections was 10 ml/kg.
# Results are expressed as mean±S.E.M.; the significance of the difference in the responses of treatment groups with respect to control is based on one-way analysis of variance (ANOVA) followed by specific post-hoc comparisons using Tukey's test. Differences are considered statistically significant when the probability of type I error was less than 0.05.
smiles,measurement,setting,value
"Cc1ncc2n1-c1ccc(Cl)cc1C(c1ccccc1F)=NC2 [Midazolam, midazolam]","acute motor toxicity, horizontal screen test",[1],No motor toxicity was observed
same,"thresholds for clonus and tonic extensor phases, kainic acid infusion","[2]; intraperitoneal 2000 μg/kg, pretreatment 10 min (FIG. 4A)",significant elevation
same,"seizure thresholds, kainic acid infusion","[2]; intratracheal 100 μg/kg, pretreatment 10 min (FIG. 4B)",effective
same,PTZ threshold for tonic extension vs vehicle,"PTZ-induced seizures; intraperitoneal 500 to 5000 μg/kg (significant), 15 min before PTZ infusion (FIG. 7)",dose-dependent elevation in threshold
same,increase in threshold for tonic extension (vs vehicle only control),"PTZ-induced seizures; midazolam 500 μg/kg i.p., 15 min before i.v. PTZ infusion, in the absence of finasteride",2.3 fold
same,PTZ seizure threshold vs vehicle,"PTZ-induced seizures; midazolam 100 or 200 μg/kg intratracheal, 10 min before PTZ, in the absence of flumazenil (FIG. 12)",significant increase in the seizure threshold

# Source: US20130309306A1, “INTRAPULMONARY BENZODIAZEPINE FOR THE TREATMENT AND PREVENTION OF SEIZURES” (priority 2010, published 2013)
